In patent US20260250320A1, “LIPIDATED PEPTIDE INHIBITORS OF INTERLEUKIN-23 RECEPTOR” (Janssen Pharmaceutica NV, priority 2023, published 2026):
*1 amine or outer side, *2 acyl side, *3 side chain or, on linkers, in order; H or OH if unused. Where a SMILES comes first, the peptide text is derived from it. Bridges are numbered along the chain shown (N, C = ends). Side-chain parts run from the residue outwards. [ ]: non-standard residue; d: D form. The star is where a group is joined. ξ: configuration not given here. X9 = O=C(O)CCCCCCCCCCCCCCCCC(=O)N[C@@H](CCC(=O)NCCOCCOCCOCCOCCOCCOCCOCCOCCOCCOCCOCCCCCC(=O)*)C(=O)O; X12 = O=C(O)CCCCCCCCCCCCCCCCC(=O)C[C@@H](CCC(=O)*)C(=O)O; Me3N+(CH2)2O(CH2)2O(CH2)2CO = C[N+](C)(C)CCOCCOCCC(=O)*; PEG12 = NCCOCCOCCOCCOCCOCCOCCOCCOCCOCCOCCOCCOCCC(=O)O; CH2CH2OCH2CH2OCH2CH2NMe3+ = C[N+](C)(C)CCOCCOCC*; Trp(7-Me) = Cc1cccc2c(C[C@H](N)C(=O)O)c[nH]c12; C18 diacid = O=C(O)CCCCCCCCCCCCCCCCC(=O)*; γGlu = O=C(O)[C@H](CCC(=O)[*:2])N[*:1]; 2Nal = N[C@@H](Cc1ccc2ccccc2c1)C(=O)O; AEF = NCCOc1ccc(C[C@H](N)C(=O)O)cc1; PEG6 = NCCOCCOCCOCCOCCOCCOCCC(=O)O; X2 = C[N+](C)(C)C[C@@H](CC(=O)O)N*; 3Pal = N[C@@H](Cc1cccnc1)C(=O)O; Lys(Me) = CNCCCC[C@H](N)C(=O)O; Pen = CC(C)(S)[C@H](N)C(=O)O; Suc = O=C(CCC(=O)[*:2])[*:1]; Thp = NC1(C(=O)O)CCOCC1; X1 = C[N+](C)(C)CCCCC*; AEEA = NCCOCCOCC(=O)O; ξK = NCCCCC(N)C(=O)O; Sar = CNCC(=O)O

Tests used:
[1] = system: IL-23-stimulated phosphorylated STAT3 in peripheral blood mononuclear cells (PBMCs); experiment: PBMC pSTAT3 Assay; format: cell-based; settings: PBMCs from healthy donors; 30 min preincubation with peptide; IL-23 5 ng/mL for 30 min; phospho-STAT3 by MSD
Method in brief: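 Healthy-donor PBMCs expanded 4 days on anti-CD3 with 100 ng/mL IL-1β, starved ~4 h in RPMI-0.1% BSA, preincubated 30 min with peptide, then stimulated 30 min at 37 °C with 5 ng/mL IL-23. Lysate pSTAT3 measured by MSD phospho-STAT panel; IC50 derived.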

IL-23R = molecular target: T1, IL-23R (Homo sapiens, UniProt Q5VWK5); experiment: IL23R Reporter Assay; format: cell-based; settings: HEK293 cells containing IL-23R, IL-12Rβ1 and STAT-inducible firefly luciferase reporter; 10 ng/mL IL-23 (EC90); 5 h
T1 construct: HEK293 cells containing IL-23R, IL-12Rβ1 and a firefly luciferase reporter gene driven by a STAT-inducible promoter (Promega); host or cells: HEK293
T1 sequence (Q5VWK5 24-629): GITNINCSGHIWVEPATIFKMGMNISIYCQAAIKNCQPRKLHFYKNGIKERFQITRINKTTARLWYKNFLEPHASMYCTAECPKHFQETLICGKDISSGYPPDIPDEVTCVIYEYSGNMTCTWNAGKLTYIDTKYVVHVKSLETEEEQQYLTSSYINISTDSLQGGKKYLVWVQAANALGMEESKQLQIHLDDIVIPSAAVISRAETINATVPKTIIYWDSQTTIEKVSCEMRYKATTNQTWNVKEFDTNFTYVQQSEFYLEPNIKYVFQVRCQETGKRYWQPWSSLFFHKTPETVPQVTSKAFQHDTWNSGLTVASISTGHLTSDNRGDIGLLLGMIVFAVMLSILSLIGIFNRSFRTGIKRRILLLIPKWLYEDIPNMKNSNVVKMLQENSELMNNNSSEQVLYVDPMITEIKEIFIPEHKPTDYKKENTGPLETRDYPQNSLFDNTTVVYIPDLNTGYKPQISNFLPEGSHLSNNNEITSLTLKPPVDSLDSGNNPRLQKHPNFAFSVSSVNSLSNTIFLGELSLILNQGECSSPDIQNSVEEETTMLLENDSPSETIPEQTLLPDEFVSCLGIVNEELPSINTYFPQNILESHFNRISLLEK
Method in brief: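 HEK293 cells carrying IL-23R, IL-12Rβ1 and a STAT-driven firefly luciferase reporter (4000 cells/well) received compound, then 10 ng/mL IL-23 solution (EC90), and were incubated for 5 h at 37° C. BioGlo luminescence was normalised to IL-23 alone (0%) and 30 μM control inhibitor (100%). IC50 came from a 4-parameter Hill fit.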

Structure (SMILES)	IC50 [1]	IC50 (IL-23R)
CC(=O)NCCCC[C@@H]1NC(=O)[C@H](Cc2c[nH]c3c(C)cccc23)NC(=O)[C@H]([C@@H](C)O)NC(=O)[C@H](CC(N)=O)NC(=O)[C@@H](NC(=O)[C@@H](CCCNC(=N)N)NC(C)=O)C(C)(C)SSC(C)(C)[C@@H](C(=O)N[C@@H](Cc2ccc(OCCNC(=O)COCCOCCNC(=O)COCCOCCNC(=O)CC[C@H](NC(=O)CCCCCCCCCCCCCCCCC(=O)O)C(=O)O)cc2)C(=O)N[C@@H](Cc2ccc3ccccc3c2)C(=O)NC2(C(=O)N[C@@H](CCCCNC(=O)CCC(=O)N[C@H](CC(=O)O)C[N+](C)(C)C)C(=O)N[C@@H](CC(N)=O)C(=O)N[C@@H](Cc3cccnc3)C(=O)N(C)CC(N)=O)CCOCC2)NC1=O [compound 9, MeCO-r-Pen(3)-N-T-7MeW-K(Ac)-Pen(3)-AEF(PEG2PEG2gEC18OH)-2Nal-THP-K(d)-N-3Pya-Sar-CONH2] (Ac-[dR][Pen]NT[Trp(7-Me)]K(Ac)[Pen][AEF]([AEEA-AEEA-γGlu-C18 diacid])[2Nal][Thp]K([Suc-X2])N[3Pal][Sar]-NH2; disulfide 2-7)	< 0.5 nM	< 50 nM
CC(=O)N(C)CCCC[C@@H]1NC(=O)[C@H](Cc2c[nH]c3c(C)cccc23)NC(=O)[C@H]([C@@H](C)O)NC(=O)[C@H](CCCCNC(=O)CCOCCOCCOCCOCCOCCOCCOCCOCCOCCOCCOCCOCCNC(=O)CC[C@H](CC(=O)CCCCCCCCCCCCCCCCC(=O)O)C(=O)O)NC(=O)[C@@H](NC(=O)CCOCCOCC[N+](C)(C)C)C(C)(C)SSC(C)(C)[C@@H](C(=O)N[C@@H](Cc2ccc(OCCCCC[N+](C)(C)C)cc2)C(=O)N[C@@H](Cc2ccc3ccccc3c2)C(=O)NC2(C(=O)N[C@@H](CCCCN(C)C(C)=O)C(=O)N[C@@H](CC(N)=O)C(=O)N[C@@H](Cc3cccnc3)C(=O)N(C)CC(=O)N(C)C)CCOCC2)NC1=O [compound 125, cPEG3aCO-Pen(3)-K(PEG12gEC18OH)-T-7MeW-K(NMeAc)-Pen(3)-TMAPF-2Nal-THP-K(NMeAc)-N-3Pya-Sar-CON(Me)2] ({Me3N+(CH2)2O(CH2)2O(CH2)2CO}-[Pen]K([PEG12-X12])T[Trp(7-Me)][Lys(Me)](Ac)[Pen]Y(X1)[2Nal][Thp][Lys(Me)](Ac)N[3Pal][Sar]-NMe2; disulfide 1-6)	0.5 to 5 nM	< 50 nM
CC(=O)N[C@H](CCCNC(=N)N)C(=O)N[C@@H]1C(=O)N[C@@H](CC(N)=O)C(=O)N[C@@H]([C@@H](C)O)C(=O)N[C@@H](Cc2c[nH]c3c(C)cccc23)C(=O)NC(CCCCNC(=O)COCCOCCNC(=O)COCCOCCNC(=O)CC[C@H](NC(=O)CCCCCCCCCCCCCCCCC(=O)O)C(=O)O)C(=O)N[C@H](C(=O)N[C@@H](Cc2ccc(OCCN)cc2)C(=O)N[C@@H](Cc2ccc3ccccc3c2)C(=O)NC2(C(=O)N[C@@H](CCC(=O)O)C(=O)N[C@@H](CC(N)=O)C(=O)N[C@@H](Cc3cccnc3)C(=O)N(C)CC(N)=O)CCOCC2)C(C)(C)SSC1(C)C (stereo partly drawn) [compound 59, MeCO-r-Pen(3)-N-T-7MeW-K(PEG2PEG2gEC18OH)-Pen(3)-AEF-2Nal-THP-E-N-3Pya-Sar-CONH2] (Ac-[dR][Pen]NT[Trp(7-Me)][ξK]([AEEA-AEEA-γGlu-C18 diacid])[Pen][AEF][2Nal][Thp]EN[3Pal][Sar]-NH2; disulfide 2-7)	< 0.5 nM	50 to 500 nM
CC(=O)NCCCC[C@@H]1NC(=O)[C@H](Cc2c[nH]c3c(C)cccc23)NC(=O)[C@H]([C@@H](C)O)NC(=O)[C@H](CC(N)=O)NC(=O)[C@@H](NC(=O)[C@H](CCCCNC(=O)COCCOCCNC(=O)COCCOCCNC(=O)CC[C@H](NC(=O)CCCCCCCCCCCCCCCCC(=O)O)C(=O)O)CCCNC(=N)N)C(C)(C)SSC(C)(C)[C@@H](C(=O)N[C@@H](Cc2ccc(OCCN)cc2)C(=O)N[C@@H](Cc2ccc3ccccc3c2)C(=O)NC2(C(=O)N[C@@H](CCCCNC(=O)CCC(=O)N[C@H](CC(=O)O)C[N+](C)(C)C)C(=O)N[C@@H](CC(N)=O)C(=O)N[C@@H](Cc3cccnc3)C(=O)N(C)CC(N)=O)CCOCC2)NC1=O [compound 32, HOC18gEPEG2PEG2CO-r-Pen(3)-N-T-7MeW-K(Ac)-Pen(3)-AEF(d)-2Nal-THP-E-N-3Pya-Sar-CONH2]	< 0.5 nM	50 to 500 nM
CC(=O)NCCCC[C@@H]1NC(=O)[C@H](Cc2c[nH]c3c(C)cccc23)NC(=O)[C@H]([C@@H](C)O)NC(=O)[C@H](CCCCNC(=O)COCCOCCNC(=O)COCCOCCNC(=O)CC[C@H](NC(=O)CCCCCCCCCCCCCCCCC(=O)O)C(=O)O)NC(=O)[C@@H](NC(=O)[C@@H](CCCNC(=N)N)NC(C)=O)C(C)(C)SSC(C)(C)[C@@H](C(=O)N[C@@H](Cc2ccc(OCCN)cc2)C(=O)N[C@@H](Cc2ccc3ccccc3c2)C(=O)NC2(C(=O)N[C@@H](CCCCNC(=O)CCC(=O)N[C@H](CC(=O)O)C[N+](C)(C)C)C(=O)N[C@@H](CC(N)=O)C(=O)N[C@@H](Cc3cccnc3)C(=O)N(C)CC(N)=O)CCOCC2)NC1=O [compound 12, MeCO-r-Pen(3)-K(PEG2PEG2gEC18OH)-T-7MeW-K(Ac)-Pen(3)-AEF-2Nal-THP-K(d)-N-3Pya-Sar-CONH2] (Ac-[dR][Pen]K([AEEA-AEEA-γGlu-C18 diacid])T[Trp(7-Me)]K(Ac)[Pen][AEF][2Nal][Thp]K([Suc-X2])N[3Pal][Sar]-NH2; disulfide 2-7)	0.5 to 5 nM	< 50 nM
CC(=O)N(C)CCCC[C@@H]1NC(=O)[C@H](Cc2c[nH]c3c(C)cccc23)NC(=O)[C@H]([C@@H](C)O)NC(=O)[C@H](CC(=O)N(C)C)NC(=O)[C@@H](NC(=O)CCOCCOCCOCCOCCOCCOCCNC(=O)CC[C@H](NC(=O)CCCCCCCCCCCCCCCCC(=O)O)C(=O)O)C(C)(C)SSC(C)(C)[C@@H](C(=O)N[C@@H](Cc2ccc(OCCOCCOCC[N+](C)(C)C)cc2)C(=O)N[C@@H](Cc2ccc3ccccc3c2)C(=O)NC2(C(=O)N[C@@H](CCCCN(C)C(C)=O)C(=O)N[C@@H](CC(N)=O)C(=O)N[C@@H](Cc3cccnc3)C(=O)N(C)CC(=O)N(C)C)CCOCC2)NC1=O [compound 109, HOC18gEPEG6CO-Pen(3)-N(N(Me)2)-T-7MeW-K(NMeAc)-Pen(3)-APEG3F-2Nal-THP-K(NMeAc)-N-3Pya-Sar-CON(Me)2] ({C18 diacid-γGlu-PEG6}-[Pen]D(NMe2)T[Trp(7-Me)][Lys(Me)](Ac)[Pen]Y(CH2CH2OCH2CH2OCH2CH2NMe3+)[2Nal][Thp][Lys(Me)](Ac)N[3Pal][Sar]-NMe2; disulfide 1-6)	< 0.5 nM	< 50 nM
CC(=O)NCCCC[C@@H]1NC(=O)[C@H](Cc2c[nH]c3c(C)cccc23)NC(=O)[C@H]([C@@H](C)O)NC(=O)[C@H](CC(N)=O)NC(=O)[C@@H](NC(C)=O)C(C)(C)SSC(C)(C)[C@@H](C(=O)N[C@@H](Cc2ccc(OCCN)cc2)C(=O)N[C@@H](Cc2ccc3ccccc3c2)C(=O)NC2(C(=O)N[C@@H](CCC(=O)O)C(=O)N[C@@H](CC(N)=O)C(=O)N[C@@H](Cc3cccnc3)C(=O)N(C)CC(=O)OCCOCCOCCNC(=O)COCCOCCNC(=O)CC[C@H](NC(=O)CCCCCCCCCCCCCCCCC(=O)O)C(=O)O)CCOCC2)NC1=O [compound 147, MeCO-Pen(3)-N-T-7MeW-K(Ac)-Pen(3)-AEF-2Nal-THP-E-N-3Pya-Sar-CO(PEG2PEG2gEC18OH)]	0.5 to 5 nM	≥ 500 nM
CC(=O)N(C)CCCC[C@@H]1NC(=O)[C@H](Cc2c[nH]c3c(C)cccc23)NC(=O)[C@H]([C@@H](C)O)NC(=O)[C@H](CCCCNC(=O)CCCCCOCCOCCOCCOCCOCCOCCOCCOCCOCCOCCOCCNC(=O)CC[C@H](NC(=O)CCCCCCCCCCCCCCCCC(=O)O)C(=O)O)NC(=O)[C@@H](NC(=O)CCOCCOCC[N+](C)(C)C)C(C)(C)SSC(C)(C)[C@@H](C(=O)N[C@@H](Cc2ccc(OCCCCC[N+](C)(C)C)cc2)C(=O)N[C@@H](Cc2ccc3ccccc3c2)C(=O)NC2(C(=O)N[C@@H](CCCCN(C)C(C)=O)C(=O)N[C@@H](CC(N)=O)C(=O)N[C@@H](Cc3cccnc3)C(=O)N(C)CC(=O)N(C)C)CCOCC2)NC1=O [compound 116, HOC18gEPEG12CO-Pen(3)-N-T-K(Ac)-Pen(3)-AEF-2Nal-THP-E-N-3Pya-Sar-CONH2] ({Me3N+(CH2)2O(CH2)2O(CH2)2CO}-[Pen]K(X9)T[Trp(7-Me)][Lys(Me)](Ac)[Pen]Y(X1)[2Nal][Thp][Lys(Me)](Ac)N[3Pal][Sar]-NMe2; disulfide 1-6)	< 0.5 nM	< 50 nM
